This note sets out measurements from publication PMC12399569, “Disruption of Spike Priming in Virus Entry: Tetrandrine as a Pan‐Coronavirus Inhibitor” (MedComm, 2025).

This assay concerns the target T1, SARS-CoV-2 Spike (Severe acute respiratory syndrome coronavirus 2, UniProt P0DTC2).
T1 construct: gene S
Description: SPR (Reichert4, CM5 chip, Spike immobilised). It is filed as binding.

Structures are written as SMILES.

As a reminder, the Kd is the equilibrium constant for the complex coming apart. Low readings indicate higher affinity, high ones lower affinity. Molecule `COc1ccc2cc1Oc1ccc(cc1)C[C@H]1c3cc(c(OC)cc3CCN1C)Oc1c(OC)c(OC)cc3c1[C@H](C2)N(C)CC3` [tetrandrine] had a Kd of roughly 2230 nM.
